Assay results taken from patent publication US9950992B2, “Water soluble haloanilide calcium-release calcium channel inhibitory compounds and methods to control bone erosion and inflammation associated with arthritides” (West Virginia University, priority 2016, dated 2018).
“Also recorded” adds a separate entry of the source. Read-outs that look alike come from different tables or passages of the source.

Key:
CIA = details: 10 mg/kg, cited from earlier work
TRPM4 = TRPM4 (Homo sapiens, UniProt Q8TD43); details: cited from earlier work
[1] = Water solubility / hydrophobicity; format: physicochemical
[2] = tested on: collagen-induced arthritis (CIA); assay: Collagen-induced arthritis (CIA) in mice, blinded arthritic index and paw swelling; format: in vivo, mouse; details: DCPA 21 mg/kg/day
Procedure: Effects on swelling, inflammatory cell invasion in joints, serum cytokines and bone erosion were measured.
Male DBA/1 mice were used, from Harlan Laboratories, Frederick Md. […] Briefly, type II collagen (CII) was injected in complete Freund's adjuvant at 100 μg per animal (˜4 μg/kg) at day 1 and, after 21 days, a booster dose of 100 μg C II in Freund's incomplete adjuvant. […] Mice were monitored for arthritis and scored in a blinded manner. Swelling of paws was be graded on scale from 0 to 4 indicating number of swollen digits. All paws were evaluated, so that the maximal arthritic index per mouse was 16. Additionally, hind paw swelling was measured using digital calipers on day 0, and each day on days 23-40. Analysis of the bones and joints for arthritis was done on H&E stained sections of hind paws, by blinded observation. This scored synovial expansion and inflammation, joint damage including pannus, and bone degradation, each on a scale of 0-3, with maximum score of 9.

[3] = tested on: collagen-induced arthritis (CIA); assay: Histology of H&E stained hind paw sections in CIA mice, blinded score; format: in vivo, mouse
Procedure: Male DBA/1 mice were used, from Harlan Laboratories, Frederick Md. […] Briefly, type II collagen (CII) was injected in complete Freund's adjuvant at 100 μg per animal (˜4 μg/kg) at day 1 and, after 21 days, a booster dose of 100 μg C II in Freund's incomplete adjuvant. […] Mice were monitored for arthritis and scored in a blinded manner. Swelling of paws was be graded on scale from 0 to 4 indicating number of swollen digits. All paws were evaluated, so that the maximal arthritic index per mouse was 16. Additionally, hind paw swelling was measured using digital calipers on day 0, and each day on days 23-40. Analysis of the bones and joints for arthritis was done on H&E stained sections of hind paws, by blinded observation. This scored synovial expansion and inflammation, joint damage including pannus, and bone degradation, each on a scale of 0-3, with maximum score of 9. […] For histological analysis, two paws from each animal were analyzed separately and blindly, and are calculated as two specimens per animal; however, if averages are used with n=animal number, there was no effect on differences (not shown).
Hind paws of animals were decalcified, paraffin embedded, cut, and stained with hematoxylin and eosin (FIGS. 2A-C). […] Therefore, blinded qualitative grading was used. […]

[4] = tested on: collagen-induced arthritis (CIA); assay: Micro-computed tomography and morphometry of paws in CIA mice; format: in vivo, mouse; details: high dose CIA/DCPA (21 mg)
Procedure: Analysis by micro-computed tomography was as described (14). In brief, paws fixed in Millonig's solution were scanned on a Viva CT40 instrument (Scanco, Bassersdorf, Switzerland) with three-dimensional reconstruction by the manufacturer's instrument-specific software. The scan section increment was 20 μm; 3-D reconstruction used a density cutoff of 211 mg/cm^3. Analysis of trabecular thickness and trabecular spacing used the plate model.

[5] = tested on: serum inflammatory cytokines; assay: Serum analysis for cytokines in CIA mice (V-PLEX panels); format: in vivo, mouse
Procedure: Heart blood at sacrifice, 40 days, was used for analysis. Plasma was separated by centrifiigation and frozen in aliquots at −20° C. until used. Production of anti-CII antibodies was evaluated by ELISA (Rheumera, Astarte Biologies, Redmond, Wash.). Production of cytokines was evaluated using V-PLEX panels in 96-well plates (Meso Scale Discovery, Rockville, Md.).

[6] = tested on: osteoclasts and CD3 T cells in tissue sections; assay: Antibody labeling of sections (anti-ATPa3/TCIRG osteoclasts, anti-CD3 T cells) in CIA mice; format: in vivo, mouse; details: high dose CIA/DCPA relative to CIA/placebo
Procedure: Antibodies used were, for TCIRGI, mouse monoclonal (clone 6H3) antibody (Sigma-Aldrich) at 1:100 dilution. For CD3, anti-CD3 mouse monoclonal antibody (PC3/188A) against synthetic peptide spanning amino acids 156-168 of the cytoplasmic domain of human CD3-ε chain was used, at 1:100 dilution. Briefly, sections were blocked in PBS with 2% hydrogen peroxide for 5 minutes and then in PBS with 2% BSA for two hours, then reacted overnight with antibodies at indicated concentrations in PBS with 0.01% tween 20, and after washing with biotinylated anti-mouse at 1:1000 dilution. Then streptavidin-horseradish peroxidase, and diaminobenzidine substrate were added. Hematoxylin and eosin counterstain was use to show tissue features. Imaging used a Nikon TE2000 inverted microscope, with 14-bit 2048×2048 pixel monochrome CCD and RGB filters to reconstruct color (Spot, Sterling Heights, Mich.).

[7] = General health of treated CIA mice (weight, activity); format: in vivo, mouse; details: about three weeks of DCPA
Procedure: Male DBA/1 mice were used, from Harlan Laboratories, Frederick Md. […] Briefly, type II collagen (CII) was injected in complete Freund's adjuvant at 100 μg per animal (˜4 μg/kg) at day 1 and, after 21 days, a booster dose of 100 μg C II in Freund's incomplete adjuvant. Inflammation was apparent 4-8 days after the second dose, in 80% of treated joints. […] Mice were monitored for arthritis and scored in a blinded manner. Swelling of paws was be graded on scale from 0 to 4 indicating number of swollen digits. All paws were evaluated, so that the maximal arthritic index per mouse was 16. Additionally, hind paw swelling was measured using digital calipers on day 0, and each day on days 23-40. Analysis of the bones and joints for arthritis was done on H&E stained sections of hind paws, by blinded observation. This scored synovial expansion and inflammation, joint damage including pannus, and bone degradation, each on a scale of 0-3, with maximum score of 9. […] For histological analysis, two paws from each animal were analyzed separately and blindly, and are calculated as two specimens per animal; however, if averages are used with n=animal number, there was no effect on differences (not shown).

[8] = molecular target: CRAC channel (STIM1/Orail) (Homo sapiens, UniProt Q96D31); details: by destabilizing STIM1/Orail interaction; Zhou et al., 2011; cited from earlier work
[9] = tested on: human or murine osteoclasts; details: earlier study (ref 5), cited from earlier work
[10] = humans, cited from earlier work
OCL formation = assay: OCL (osteoclast) formation assay; format: cell-based

Chain of TRPM4 (Q8TD43 whole entry, species assumed): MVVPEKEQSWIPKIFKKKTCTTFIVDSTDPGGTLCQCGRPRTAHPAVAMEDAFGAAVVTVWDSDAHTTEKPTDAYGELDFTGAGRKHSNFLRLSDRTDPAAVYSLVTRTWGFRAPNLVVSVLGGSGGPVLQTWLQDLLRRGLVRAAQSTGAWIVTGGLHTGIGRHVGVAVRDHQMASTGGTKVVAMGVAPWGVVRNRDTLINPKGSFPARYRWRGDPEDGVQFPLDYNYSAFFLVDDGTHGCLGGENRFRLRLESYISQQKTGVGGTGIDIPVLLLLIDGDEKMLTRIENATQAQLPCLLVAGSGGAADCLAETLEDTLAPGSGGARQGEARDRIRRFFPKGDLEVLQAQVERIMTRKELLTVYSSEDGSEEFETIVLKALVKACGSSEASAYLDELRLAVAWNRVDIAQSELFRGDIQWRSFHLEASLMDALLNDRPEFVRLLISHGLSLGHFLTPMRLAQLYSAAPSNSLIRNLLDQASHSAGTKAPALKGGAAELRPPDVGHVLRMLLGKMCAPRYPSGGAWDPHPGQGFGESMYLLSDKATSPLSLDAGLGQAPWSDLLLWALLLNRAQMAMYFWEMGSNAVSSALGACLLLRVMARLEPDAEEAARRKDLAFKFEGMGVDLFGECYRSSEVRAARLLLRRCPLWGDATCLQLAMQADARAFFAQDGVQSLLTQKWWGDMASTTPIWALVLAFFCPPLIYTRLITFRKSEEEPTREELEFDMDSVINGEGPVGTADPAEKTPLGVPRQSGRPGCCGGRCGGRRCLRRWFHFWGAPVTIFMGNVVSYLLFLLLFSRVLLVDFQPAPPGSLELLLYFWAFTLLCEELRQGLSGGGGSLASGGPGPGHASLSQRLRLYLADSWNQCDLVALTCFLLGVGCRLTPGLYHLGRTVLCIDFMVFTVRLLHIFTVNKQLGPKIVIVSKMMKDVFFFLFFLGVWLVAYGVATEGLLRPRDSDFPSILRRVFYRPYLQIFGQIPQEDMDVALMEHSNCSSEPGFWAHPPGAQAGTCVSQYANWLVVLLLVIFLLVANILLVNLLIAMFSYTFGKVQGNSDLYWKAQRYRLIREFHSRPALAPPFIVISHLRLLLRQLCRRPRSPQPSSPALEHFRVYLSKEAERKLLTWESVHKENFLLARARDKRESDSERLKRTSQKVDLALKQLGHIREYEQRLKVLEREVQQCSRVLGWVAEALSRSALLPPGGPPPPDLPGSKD
Chain of CRAC channel (STIM1/Orail) (Q96D31 whole entry): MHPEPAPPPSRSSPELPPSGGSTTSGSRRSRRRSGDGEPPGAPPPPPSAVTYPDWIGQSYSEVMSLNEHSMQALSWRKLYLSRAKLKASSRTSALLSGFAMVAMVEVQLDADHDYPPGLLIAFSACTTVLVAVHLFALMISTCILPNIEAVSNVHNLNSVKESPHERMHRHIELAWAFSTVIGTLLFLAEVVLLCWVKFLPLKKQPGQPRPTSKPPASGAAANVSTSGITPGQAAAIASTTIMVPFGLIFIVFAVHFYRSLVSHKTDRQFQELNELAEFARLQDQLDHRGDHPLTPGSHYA

Molecule: Cc1nnsc1C(=O)Nc1ccc(-n2nc(C(F)(F)F)cc2C(F)(F)F)cc1 [BTP-2, 4-methy-4-[3,5-bis(trifluorometliyl)-1H-pyrazol-1-yl]-1,2,3-thiadiazole-5-carboxanilide]
- inflammatory cytokines IL1, IL6 and TNF-α (CIA; 10 days after induction): near-baseline levels
- effect on CIA (CIA): suppressed CIA
- concentration suppressing cytokines including 1L2 and calcium influx by TRPM4 (TRPM4): low nanomolar concentrations

Molecule: O=C(O)CC(=O)Nc1ccc(Cl)c(Cl)c1 [DCOPA, 3-(3,4-dichloroanilino)-3-oxopropanoic acid]
- water solubility compared with DCPA [1]: more water soluble compound than DCPA

Molecule: CCC(=O)Nc1ccc(Cl)c(Cl)c1 [DCPA, N-(3,4-dichlorophenyl)propanamide]
- overall swelling of joints [2]: reduced by a similar amount
- time of maximal effect after collagen booster [2]: 12 to 17 days
- reduction of bone and cartilage damage in sections of animal feet ([3]; DCPA 21 mg/kg/day): −50%
- histological damage score ([3]; ankle bone of one animal, high dose CIA/DCPA (21 mg DCPA), 40 days, scale 0-9): 4
- bone volume/total volume by micro-CT ([4]; p=0.03 vs CIA/placebo): statistically greater than CIA/placebo animals
- bone density by micro-CT ([4]; sacrifice day 40): indistinguishable from untreated controls
- effect on serum cytokines (TNF-α, IL-1, IL-6, CXCL1, IFN-γ) ([5]; DCPA 21 mg/kg/day, day 40 serum, vs CIA/placebo): no effect; also recorded: did not affect
- effect on cytokine production of IL-12p70 or IL-10 ([5]; DCPA, serum of CIA mice): did not significantly affect
- osteoclast surface area (ATPa3 labeling) [6]: large and statistically significant reduction
- adverse effects on animal weight or activity [7]: no adverse effects
- CRAC channel activation [8]: inhibits CRAC channel activation
- osteoclast differentiation / formation in vitro [9]: inhibits osteoclast formation in vitro
- osteoclast differentiation / formation in vitro ([9]; listed as 3,4-dichloropropionaniline): reduced differentiation of bone degrading osteoclasts
- toxicity of intermittent exposure in mg/kg quantities [10]: minimal apparent toxicity
- dose that can cause fatal methemoglobinemia ([10]; massive doses): 4000 to 5000 mg/kg

Molecule: CN(C(=O)CC(=O)O)c1ccc(Cl)c(Cl)c1 [N-MeDCOPA]
- inhibition of OCL formation (OCL formation; 100 μM): shows inhibition of OCL formation

Molecule: N-methyl-DCPA [N-MeDCPA]
- toxicity compared with DCPA (OCL formation; OCL assay findings): less toxic than DCPA
- effect in OCL assay compared with DCPA (OCL formation; same doses as DCPA, took longer): looked as good as DCPA
- hydrophobicity [1]: very hydrophobic
